Laboratory results published in patent US10758534B2 (Vertex Pharmaceuticals Incorporated, priority 2014, dated 2020).

Biological target: T1, F508del (Homo sapiens, UniProt P13569, DEL508-508)
T1 construct: expressed in transfected cells
Experiment: Protocol 1: membrane potential optical assay (FLIPR III, voltage sensing dye), identification of potentiator compounds
Type: cell-based
Conditions: Table 3, compounds of Table 1
Method in brief: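 Gating potentiation is read as a membrane-potential fluorescence change (FLIPR III, voltage-sensing dye) after one forskolin addition under a Cl− gradient, with gluconate replacing chloride, pH 7.4. Cells are F508del-expressing NIH3T3 mouse fibroblasts held 24 h at 27 °C and exposed to compound before dye loading.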

T1 sequence (P13569 with tags, fused parts or gaps DEL508-508): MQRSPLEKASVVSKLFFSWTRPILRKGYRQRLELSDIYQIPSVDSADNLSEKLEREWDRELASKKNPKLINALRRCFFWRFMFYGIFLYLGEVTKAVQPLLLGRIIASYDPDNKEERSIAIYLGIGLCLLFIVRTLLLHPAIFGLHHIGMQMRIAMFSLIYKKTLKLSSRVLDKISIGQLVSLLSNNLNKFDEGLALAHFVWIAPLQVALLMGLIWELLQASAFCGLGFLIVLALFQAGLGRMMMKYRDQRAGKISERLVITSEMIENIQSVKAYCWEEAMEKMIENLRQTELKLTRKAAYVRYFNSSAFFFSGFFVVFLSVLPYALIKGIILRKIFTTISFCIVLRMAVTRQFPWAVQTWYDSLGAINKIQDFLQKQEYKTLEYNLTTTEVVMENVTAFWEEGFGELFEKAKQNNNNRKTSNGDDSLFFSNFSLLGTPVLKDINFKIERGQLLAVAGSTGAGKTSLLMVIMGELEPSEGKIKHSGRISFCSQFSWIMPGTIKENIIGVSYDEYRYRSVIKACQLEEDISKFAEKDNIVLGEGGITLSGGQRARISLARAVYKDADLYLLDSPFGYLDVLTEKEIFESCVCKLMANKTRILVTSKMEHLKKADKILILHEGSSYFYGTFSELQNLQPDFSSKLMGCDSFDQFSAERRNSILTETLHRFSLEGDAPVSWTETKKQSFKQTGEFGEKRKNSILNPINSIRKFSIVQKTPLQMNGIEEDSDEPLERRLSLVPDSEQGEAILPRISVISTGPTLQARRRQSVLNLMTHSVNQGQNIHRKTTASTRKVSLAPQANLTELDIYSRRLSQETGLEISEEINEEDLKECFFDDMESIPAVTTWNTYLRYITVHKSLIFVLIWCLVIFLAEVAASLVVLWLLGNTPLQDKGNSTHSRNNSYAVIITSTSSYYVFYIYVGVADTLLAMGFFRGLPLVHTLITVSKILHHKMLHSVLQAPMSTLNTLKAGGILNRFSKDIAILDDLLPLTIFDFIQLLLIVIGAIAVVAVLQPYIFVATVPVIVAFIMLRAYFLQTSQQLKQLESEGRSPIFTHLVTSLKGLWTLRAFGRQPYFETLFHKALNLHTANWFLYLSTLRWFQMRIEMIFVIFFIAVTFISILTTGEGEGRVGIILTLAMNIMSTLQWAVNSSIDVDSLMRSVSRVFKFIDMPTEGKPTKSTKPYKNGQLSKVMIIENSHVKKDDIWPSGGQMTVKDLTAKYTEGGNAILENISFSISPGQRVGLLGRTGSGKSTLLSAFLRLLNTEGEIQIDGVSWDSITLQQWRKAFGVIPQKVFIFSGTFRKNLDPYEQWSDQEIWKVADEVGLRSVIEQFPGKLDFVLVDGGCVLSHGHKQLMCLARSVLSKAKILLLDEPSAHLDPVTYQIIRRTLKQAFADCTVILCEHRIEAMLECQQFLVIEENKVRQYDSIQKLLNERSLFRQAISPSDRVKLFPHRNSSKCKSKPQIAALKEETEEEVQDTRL

EC30 | Structure (SMILES)
+++ (“+++” means <3 uM) | CCOc1ccc(C)cc1-c1ccc(C(=O)NS(=O)(=O)c2cccnc2N)c(N2C[C@@H](C)CC2(C)C)n1 [Compound 1964, N-[(2-amino-3-pyridyl)sulfonyl]-6-(2-ethoxy-5-methyl-phenyl)-2-[(4S)-2,2,4-trimethylpyrrolidin-1-yl]pyridine-3-carboxamide]
+++ (“+++” means <3 uM) | C[C@@H]1CN(c2nc(-c3ccccc3C(F)(F)F)ccc2C(=O)NS(=O)(=O)c2ccc[nH]c2=O)C(C)(C)C1 [Compound 1960, N-[(2-oxo-1H-pyridin-3-yl)sulfonyl]-6-[2-(trifluoromethyl)phenyl]-2-[(4S)-2,2,4-trimethylpyrrolidin-1-yl]pyridine-3-carboxamide]
+++ (“+++” means <3 uM) | Cc1ccc(-c2ccc(C(=O)NS(=O)(=O)c3cccc(N)n3)c(N3C[C@@H](C)CC3(C)C)n2)c(F)c1 [Compound 1910, N-[(6-amino-2-pyridyl)sulfonyl]-6-(2-fluoro-4-methyl-phenyl)-2-[(4S)-2,2,4-trimethylpyrrolidin-1-yl]pyridine-3-carboxamide]
+++ (“+++” means <3 uM) | Cc1cc(OC(C)C)cc(-c2ccc(C(=O)NS(=O)(=O)c3cccc(N)n3)c(N3C[C@@H](C)CC3(C)C)n2)c1 [Compound 1671, N-[(6-amino-2-pyridyl)sulfonyl]-6-(3-isopropoxy-5-methyl-phenyl)-2-[(4S)-2,2,4-trimethylpyrrolidin-1-yl]pyridine-3-carboxamide]
++ (“++” means between 3 uM and 10 uM) | COc1ncc(-c2ccc(C(=O)NS(=O)(=O)c3ccc[nH]c3=O)c(Oc3c(C)cc(C)cc3C)n2)cc1C [Compound 930, 6-(6-methoxy-5-methyl-3-pyridyl)-N-[(2-oxo-1H-pyridin-3-yl)sulfonyl]-2-(2,4,6-trimethylphenoxy)pyridine-3-carboxamide]
++ (“++” means between 3 uM and 10 uM) | CC(C)Oc1ccc(-c2ccc(C(=O)NS(=O)(=O)c3cccc(N)n3)c(N3CCC(c4ccccc4)C3)n2)cn1 (stereo not drawn) [Compound 1112, N-[(6-amino-2-pyridyl)sulfonyl]-6-(6-isopropoxy-3-pyridyl)-2-(3-phenylpyrrolidin-1-yl)pyridine-3-carboxamide]
+++ (“+++” means <3 uM) | CC(C)Oc1ccc(-c2ccc(C(=O)NS(=O)(=O)c3cccc(N)n3)c(N3CCCC3C)n2)cn1 (stereo not drawn) [Compound 1271, N-[(6-amino-2-pyridyl)sulfonyl]-6-(6-isopropoxy-3-pyridyl)-2-(2-methylpyrrolidin-1-yl)pyridine-3-carboxamide]
++ (“++” means between 3 uM and 10 uM) | Cc1cc(C)c(Oc2nc(-c3cccc4[nH]ccc34)ccc2C(=O)NS(=O)(=O)c2cccc(N)n2)c(C)c1 [Compound 977, N-[(6-amino-2-pyridyl)sulfonyl]-6-(1H-indol-4-yl)-2-(2,4,6-trimethylphenoxy)pyridine-3-carboxamide]
+++ (“+++” means <3 uM) | CCOc1cccc(-c2ccc(C(=O)NS(=O)(=O)c3cccc(N)n3)c(Oc3c(C)cc(C)cc3C)n2)n1 [Compound 1133, N-[(6-amino-2-pyridyl)sulfonyl]-6-(6-ethoxy-2-pyridyl)-2-(2,4,6-trimethylphenoxy)pyridine-3-carboxamide]
+++ (“+++” means <3 uM) | CCc1ccnc(Nc2cccc(S(=O)(=O)NC(=O)c3cccnc3N3CC(C)CC3(C)C)n2)c1 (stereo not drawn) [Compound 1862, N—[[6-[(4-ethyl-2-pyridyl)amino]-2-pyridyl]sulfonyl]-2-(2,2,4-trimethylpyrrolidin-1-yl)pyridine-3-carboxamide]
+++ (“+++” means <3 uM) | CNc1cccc(S(=O)(=O)NC(=O)c2ccc(-c3ccccc3)nc2Oc2c(C)cc(C)cc2C)n1 [Compound 1032, N-[[6-(methylamino)-2-pyridyl]sulfonyl]-6-phenyl-2-(2,4,6-trimethylphenoxy)pyridine-3-carboxamide]
+++ (“+++” means <3 uM) | Cc1cc(C)c(CN2C(C(=O)NS(=O)(=O)c3cccc(N)n3)c3ccccc3C2(C)C)c(C)c1 (stereo not drawn) [Compound 1101, N-[(6-amino-2-pyridyl)sulfonyl]-3,3-dimethyl-2-[(2,4,6-trimethylphenyl)methyl]isoindoline-1-carboxamide]
+++ (“+++” means <3 uM) | CC(C)COc1cc(F)cc(-c2ccc(C(=O)NS(=O)(=O)c3cccc(N)n3)c(C3=C[C@H](C)CC3(C)C)n2)c1 [Compound 1961]
+++ (“+++” means <3 uM) | CC1CN(c2ncc(-c3cccc(C(F)(F)F)c3)cc2C(=O)NS(=O)(=O)c2cccc(N)n2)C(C)(C)C1 (stereo not drawn) [Compound 1950, N-[(6-amino-2-pyridyl)sulfonyl]-5-[3-(trifluoromethyl)phenyl]-2-(2,2,4-trimethylpyrrolidin-1-yl)pyridine-3-carboxamide]
+ (“+” means greater than 10 uM) | COc1cncc(-c2ccc(C(=O)NS(=O)(=O)c3cccc(N)n3)c(Oc3c(C)cc(C)cc3C)n2)c1 [Compound 1115, N-[(6-amino-2-pyridyl)sulfonyl]-6-(5-methoxy-3-pyridyl)-2-(2,4,6-trimethylphenoxy)pyridine-3-carboxamide]

Structure (SMILES) | EC30
CC(C)COc1cc(F)cc(-c2ccc(C(=O)NS(=O)(=O)c3cccc(N)n3)c(OCCc3ccccc3)n2)c1 [Compound 1426, N-[(6-amino-2-pyridyl)sulfonyl]-6-(3-fluoro-5-isobutoxy-phenyl)-2-phenethyloxy-pyridine-3-carboxamide] | +++ (“+++” means <3 uM)
CC(C)COc1cc(F)cc(-c2ccc(C(=O)NS(=O)(=O)c3cccc(N)c3)c(N3CCC(C)(C)CC3)n2)c1 [Compound 1014, N-(3-aminophenyl)sulfonyl-2-(4,4-dimethyl-1-piperidyl)-6-(3-fluoro-5-isobutoxy-phenyl)pyridine-3-carboxamide] | +++ (“+++” means <3 uM)
CC(C)COc1cc(F)cc(-c2ccc(C(=O)NS(=O)(=O)c3cccc(N)n3)c(OC3C[C@@H]4C[C@@H]4C3)n2)c1 (stereo partly drawn) [Compound 1077, N-[(6-amino-2-pyridyl)sulfonyl]-2-[[(1R,5S)-3-bicyclo[3.1.0]hexanyl]oxy]-6-(3-fluoro-5-isobutoxy-phenyl)pyridine-3-carboxamide] | +++ (“+++” means <3 uM)
CC(C)COc1cc(F)cc(-c2ccc(C(=O)NS(=O)(=O)c3cccc(N)c3)c(N3CC(C)CC3(C)C)n2)c1 (stereo not drawn) [Compound 1184, N-(3-aminophenyl)sulfonyl-6-(3-fluoro-5-isobutoxy-phenyl)-2-(2,2,4-trimethylpyrrolidin-1-yl)pyridine-3-carboxamide] | +++ (“+++” means <3 uM)
Cc1cc(C)c(Oc2nc(-c3cc(F)cc(OCC(C)C)c3)ccc2C(=O)NS(=O)(=O)c2cccc(CN)n2)c(C)c1 [Compound 871, N-[[6-(aminomethyl)-2-pyridyl]sulfonyl]-6-(3-fluoro-5-isobutoxy-phenyl)-2-(2,4,6-trimethylphenoxy)pyridine-3-carboxamide] | +++ (“+++” means <3 uM)
CC1CN(c2nc(C(C)(C)C)c(C3=CC4CCC(C3)N4C(=O)OC(C)(C)C)cc2C(=O)NS(=O)(=O)c2cccc(N)n2)C(C)(C)C1 (stereo not drawn) [Compound 1388, tert-butyl 3-[5-[(6-amino-2-pyridyl)sulfonylcarbamoyl]-2-tert-butyl-6-(2,2,4-trimethylpyrrolidin-1-yl)-3-pyridyl]-8-azabicyclo[3.2.1]oct-3-ene-8-carboxylate] | +++ (“+++” means <3 uM)
